{"source": "ChEMBL document CHEMBL1201862", "about": "“PubChem BioAssay data set” (2004)", "assay_in_all_cases": "inhibition of tumour cell growth, NCI panel, 48 h", "key": {"OVCAR-4": {"tested_on": "OVCAR-4"}, "NCI-H226": {"tested_on": "NCI-H226"}, "DU-145": {"tested_on": "DU-145"}, "COLO 205": {"tested_on": "COLO 205"}, "RXF 393": {"tested_on": "RXF 393"}, "TK-10": {"tested_on": "TK-10"}, "HCC 2998": {"tested_on": "HCC 2998"}, "OVCAR-5": {"tested_on": "OVCAR-5"}, "U-251": {"tested_on": "U-251"}, "SF-539": {"tested_on": "SF-539"}, "KM12": {"tested_on": "KM12"}, "MDA-MB-435": {"tested_on": "MDA-MB-435"}, "HT-29": {"tested_on": "HT-29"}, "LOX IMVI": {"tested_on": "LOX IMVI"}, "UACC-62": {"tested_on": "UACC-62"}, "SNB-75": {"tested_on": "SNB-75"}, "SK-MEL-5": {"tested_on": "SK-MEL-5"}, "T47D": {"tested_on": "T47D"}, "SW-620": {"tested_on": "SW-620"}, "SF-295": {"tested_on": "SF-295"}}, "note": "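Test compounds were applied to cells in 96-well plates for 48 hours at 5 doses. GI50 = concentration required for 50% inhibition of growth.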 Activity calls are given as the source filed them. No stated cut-off is given here; in the data, active = GI50 up to about 1.1 µM and inactive = higher. Non-standard residues stand in square brackets, D forms with d. Residues, ends and D or L forms follow the SMILES beside them. *: point of attachment. Bn2Val = CC(C)[C@@H](C(=O)*)N(Cc1ccccc1)Cc1ccccc1; NMeV = CN[C@H](C(=O)O)C(C)C; X32 = COc1ccc(CN*)c(OC)c1; dNMeA = CN[C@H](C)C(=O)O"}
{"compound": "CCc1c(Cc2cccc3ccccc23)n2c(nc1=O)SCC2OCCO", "note": "(centres undefined)", "values": [{"measurement": "GI50", "setting": "OVCAR-4", "value": "41.5 µM (inactive)"}, {"measurement": "GI50", "setting": "NCI-H226", "value": "> 100 µM (inactive)"}, {"measurement": "GI50", "setting": "DU-145", "value": "88.3 µM (inactive)"}, {"measurement": "GI50", "setting": "COLO 205", "value": "> 100 µM (inactive)"}, {"measurement": "GI50", "setting": "RXF 393", "value": "> 100 µM (inactive)"}, {"measurement": "GI50", "setting": "TK-10", "value": "> 100 µM (inactive)"}, {"measurement": "GI50", "setting": "HCC 2998", "value": "64.1 µM (inactive)"}, {"measurement": "GI50", "setting": "OVCAR-5", "value": "> 100 µM (inactive)"}, {"measurement": "GI50", "setting": "U-251", "value": "76.9 µM (inactive)"}, {"measurement": "GI50", "setting": "SF-539", "value": "> 100 µM (inactive)"}, {"measurement": "GI50", "setting": "KM12", "value": "56.5 µM (inactive)"}, {"measurement": "GI50", "setting": "MDA-MB-435", "value": "18.2 µM (inactive)"}, {"measurement": "GI50", "setting": "HT-29", "value": "55.3 µM (inactive)"}, {"measurement": "GI50", "setting": "LOX IMVI", "value": "79.3 µM (inactive)"}, {"measurement": "GI50", "setting": "UACC-62", "value": "56.5 µM (inactive)"}, {"measurement": "GI50", "setting": "SNB-75", "value": "> 100 µM (inactive)"}, {"measurement": "GI50", "setting": "SK-MEL-5", "value": "95.5 µM (inactive)"}, {"measurement": "GI50", "setting": "T47D", "value": "31 µM (inactive)"}, {"measurement": "GI50", "setting": "SW-620", "value": "70.5 µM (inactive)"}]}
{"compound": "CCN(CC)CCC(=O)c1ccc(Oc2ccc(C)cc2)cc1", "values": [{"measurement": "GI50", "setting": "OVCAR-4", "value": "24.4 µM (inactive)"}, {"measurement": "GI50", "setting": "NCI-H226", "value": "35.2 µM (inactive)"}, {"measurement": "GI50", "setting": "DU-145", "value": "29.1 µM (inactive)"}, {"measurement": "GI50", "setting": "COLO 205", "value": "23.4 µM (inactive)"}, {"measurement": "GI50", "setting": "RXF 393", "value": "16.4 µM (inactive)"}, {"measurement": "GI50", "setting": "TK-10", "value": "17.7 µM (inactive)"}, {"measurement": "GI50", "setting": "HCC 2998", "value": "19.2 µM (inactive)"}, {"measurement": "GI50", "setting": "OVCAR-5", "value": "19.5 µM (inactive)"}, {"measurement": "GI50", "setting": "U-251", "value": "17 µM (inactive)"}, {"measurement": "GI50", "setting": "SF-539", "value": "18.8 µM (inactive)"}, {"measurement": "GI50", "setting": "KM12", "value": "10.9 µM (inactive)"}, {"measurement": "GI50", "setting": "MDA-MB-435", "value": "18 µM (inactive)"}, {"measurement": "GI50", "setting": "SF-295", "value": "17.5 µM (inactive)"}, {"measurement": "GI50", "setting": "HT-29", "value": "18.9 µM (inactive)"}, {"measurement": "GI50", "setting": "LOX IMVI", "value": "16.7 µM (inactive)"}, {"measurement": "GI50", "setting": "UACC-62", "value": "17.3 µM (inactive)"}, {"measurement": "GI50", "setting": "SNB-75", "value": "20.2 µM (inactive)"}, {"measurement": "GI50", "setting": "T47D", "value": "18.2 µM (inactive)"}, {"measurement": "GI50", "setting": "SW-620", "value": "18.7 µM (inactive)"}]}
{"compound": "COc1ccc(CNC(=O)[C@@H]2CCCN2C(=O)[C@@H](C)N(C)C(=O)[C@H](C(C)C)N(C)C(=O)[C@@H](NC(=O)[C@H](C(C)C)N(Cc2ccccc2)Cc2ccccc2)C(C)C)c(OC)c1", "note": "(Bn2Val-V[NMeV][dNMeA]P-X32)", "values": [{"measurement": "GI50", "setting": "OVCAR-4", "value": "3.41 µM (inactive)"}, {"measurement": "GI50", "setting": "NCI-H226", "value": "5.41 µM (inactive)"}, {"measurement": "GI50", "setting": "DU-145", "value": "6.15 µM (inactive)"}, {"measurement": "GI50", "setting": "COLO 205", "value": "2.29 µM (inactive)"}, {"measurement": "GI50", "setting": "RXF 393", "value": "1.85 µM (inactive)"}, {"measurement": "GI50", "setting": "TK-10", "value": "4.47 µM (inactive)"}, {"measurement": "GI50", "setting": "HCC 2998", "value": "2.33 µM (inactive)"}, {"measurement": "GI50", "setting": "OVCAR-5", "value": "1.59 µM (inactive)"}, {"measurement": "GI50", "setting": "U-251", "value": "2.25 µM (inactive)"}, {"measurement": "GI50", "setting": "SF-539", "value": "2.44 µM (inactive)"}, {"measurement": "GI50", "setting": "KM12", "value": "2.36 µM (inactive)"}, {"measurement": "GI50", "setting": "MDA-MB-435", "value": "2.61 µM (inactive)"}, {"measurement": "GI50", "setting": "SF-295", "value": "3.34 µM (inactive)"}, {"measurement": "GI50", "setting": "HT-29", "value": "1.74 µM (inactive)"}, {"measurement": "GI50", "setting": "LOX IMVI", "value": "2.84 µM (inactive)"}, {"measurement": "GI50", "setting": "UACC-62", "value": "4.18 µM (inactive)"}, {"measurement": "GI50", "setting": "SNB-75", "value": "1.52 µM (inactive)"}, {"measurement": "GI50", "setting": "T47D", "value": "10.6 µM (inactive)"}, {"measurement": "GI50", "setting": "SW-620", "value": "3.5 µM (inactive)"}]}
{"compound": "O=C(C[C@@H]1NCCC[C@H]1O)Cn1cnc2cc(Br)c(Cl)cc2c1=O", "values": [{"measurement": "GI50", "setting": "OVCAR-4", "value": "0.0186 µM (active)"}, {"measurement": "GI50", "setting": "NCI-H226", "value": "< 0.0115 µM (active)"}, {"measurement": "GI50", "setting": "DU-145", "value": "0.025 µM (active)"}, {"measurement": "GI50", "setting": "COLO 205", "value": "0.0165 µM (active)"}, {"measurement": "GI50", "setting": "RXF 393", "value": "0.0277 µM (active)"}, {"measurement": "GI50", "setting": "TK-10", "value": "0.0491 µM (active)"}, {"measurement": "GI50", "setting": "HCC 2998", "value": "0.0458 µM (active)"}, {"measurement": "GI50", "setting": "OVCAR-5", "value": "< 0.0135 µM (active)"}, {"measurement": "GI50", "setting": "U-251", "value": "0.0252 µM (active)"}, {"measurement": "GI50", "setting": "SF-539", "value": "0.023 µM (active)"}, {"measurement": "GI50", "setting": "KM12", "value": "0.0171 µM (active)"}, {"measurement": "GI50", "setting": "MDA-MB-435", "value": "0.012 µM (active)"}, {"measurement": "GI50", "setting": "SF-295", "value": "0.024 µM (active)"}, {"measurement": "GI50", "setting": "HT-29", "value": "0.022 µM (active)"}, {"measurement": "GI50", "setting": "LOX IMVI", "value": "< 0.01 µM (active)"}, {"measurement": "GI50", "setting": "SNB-75", "value": "0.0403 µM (active)"}, {"measurement": "GI50", "setting": "SK-MEL-5", "value": "0.0153 µM (active)"}, {"measurement": "GI50", "setting": "T47D", "value": "0.0246 µM (active)"}, {"measurement": "GI50", "setting": "SW-620", "value": "0.0259 µM (active)"}]}
{"compound": "CCOc1cc(/C=C2\\N=C(c3ccccc3)N(c3nc4ccccc4s3)C2=O)ccc1O", "values": [{"measurement": "GI50", "setting": "OVCAR-4", "value": "48.3 µM (inactive)"}, {"measurement": "GI50", "setting": "NCI-H226", "value": "59.8 µM (inactive)"}, {"measurement": "GI50", "setting": "DU-145", "value": "45.1 µM (inactive)"}, {"measurement": "GI50", "setting": "RXF 393", "value": "> 100 µM (inactive)"}, {"measurement": "GI50", "setting": "TK-10", "value": "56.9 µM (inactive)"}, {"measurement": "GI50", "setting": "HCC 2998", "value": "25.1 µM (inactive)"}, {"measurement": "GI50", "setting": "OVCAR-5", "value": "> 100 µM (inactive)"}, {"measurement": "GI50", "setting": "U-251", "value": "47.9 µM (inactive)"}, {"measurement": "GI50", "setting": "SF-539", "value": "50 µM (inactive)"}, {"measurement": "GI50", "setting": "KM12", "value": "48.8 µM (inactive)"}, {"measurement": "GI50", "setting": "MDA-MB-435", "value": "40.1 µM (inactive)"}, {"measurement": "GI50", "setting": "SF-295", "value": "80.2 µM (inactive)"}, {"measurement": "GI50", "setting": "HT-29", "value": "64.1 µM (inactive)"}, {"measurement": "GI50", "setting": "LOX IMVI", "value": "37.2 µM (inactive)"}, {"measurement": "GI50", "setting": "SNB-75", "value": "51.2 µM (inactive)"}, {"measurement": "GI50", "setting": "SK-MEL-5", "value": "18.5 µM (inactive)"}, {"measurement": "GI50", "setting": "T47D", "value": "40.6 µM (inactive)"}, {"measurement": "GI50", "setting": "SW-620", "value": "47.9 µM (inactive)"}]}
